Test results reported in US20220053764A1, “METHOD OF CONTROLLING WEEDS” (SUMITOMO CHEMICAL COMPANY, LIMITED, priority 2018, published 2022).
Where a name gives a salt, the structure may show the parent alone.

Columns and labels:
Type in all cases: in vivo
[1] = tested on: glyphosate-resistant Amaranthus palmeri in which the number of copies of EPSPS gene had been increased; experiment: Herbicidal effect, foliar spray on potted weeds in greenhouse; conditions: rating 0 to 100, 14 days after foliar spray, 200 L/ha
Protocol: (§1) In a plastic pot filled with soli were seeded glyphosate-resistant Amaranthus palmeri in which the number of copies of EPSPS gene had been increased (produced by Azlin Seed Service) and glyphosate-sensitive Amaranthus palmeri (produced by Azlin Seed Service). The weeds were cultivated in a greenhouse for 18 days, and then an aqueous spray liquid [i.e., a liquid prepared by diluting a predetermined amount of a trifludimoxazin formulation (i.e., an emulsifiable concentrate prepared by mixing 20 parts of trifludimoxazin with 80 parts of a liquid cocktail (i.e., a mixture of 5 parts of cyclohexanone and 1 part of SORPOL 2680X (manufactured by TOHO Chemical Industry Co., Ltd.))) with water containing a spreading agent] was sprayed uniformly from above the weeds at the amount of 200 L/ha using a sprayer. Subsequently, the weeds were allowed to grow in a greenhouse for 14 days, and then the herbicidal effect was examined. As a reference example, the same procedure was carried out, except that the trifludimoxazin formulation was replaced with a predetermined amount of a glyphosate formulation (i.e., a soluble liquid containing 660 g/L of glyphosate potassium salt: “ROUNDUP MAXLOAD” (manufactured by Nissan Chemical Corporation). The results are shown in the table 1.

[2] = tested on: glyphosate-sensitive Amaranthus palmeri; experiment: as above; conditions: rating 0 to 100, 14 days after foliar spray, 200 L/ha
Protocol: as §1

[3] = tested on: glyphosate-resistant weeds (Amaranthus palmeri, waterhemp, kochia, marestail, Guernsey fleabane, fleabane, goosegrass, darnel) and volunteer …; experiment: Soil treatment on day of seeding, greenhouse pot test (Example 1); conditions: soil treatment at 6.25, 12.5, 25, 50, 100 or 150 g/ha; 200 L/ha; twenty-eight days after the treatment
Protocol: (§2) In a plastic pot filled with soil are seeded glyphosate-resistant Amaranthus palmeri in which the number of copies of EPSPS gene has been increased, glyphosate-resistant waterhemp in which the number of copies of EPSPS gene has been increased, glyphosate-resistant kochia in which the number of copies of EPSPS gene has been increased, marestail which is resistant to glyphosate by involving an ABC transporter, Guernsey fleabane which is resistant to glyphosate by involving an ABC transporter, fleabane which is resistant to glyphosate by involving an ABC transporter, glyphosate-resistant goosegrass having Thr102Ile, glyphosate-resistant goosegrass having Pro106Ser, glyphosate-resistant goosegrass having Pro106A1a, glyphosate-resistant goosegrass having Pro106Leu, glyphosate-resistant goosegrass having Thr102Ile and Pro106Ser, glyphosate-resistant darnel having Thr102Ile, glyphosate-resistant darnel having Pro106Ser, glyphosate-resistant darnel having Pro106Ala, glyphosate-resistant darnel having Pro106Leu, volunteer glyphosate-tolerant soybean, and volunteer glyphosate-tolerant cotton. On the same day, the soil is treated with trifludimoxazin at the application rate of 6.25, 12.5, 25, 50, 100 or 150 g/ha. The amount of a liquid sprayed is 200 L/ha. Subsequently, the plants are cultivated in a greenhouse.

[4] = tested on: glyphosate-resistant weeds (Amaranthus palmeri, waterhemp, kochia, marestail, Guernsey fleabane, fleabane, goosegrass, darnel) and volunteer …; experiment: Foliar treatment 21 days after seeding, greenhouse pot test (Example 2); conditions: foliar treatment at 6.25, 125, 25, 50, 100 or 150 g/ha; 200 L/ha; fourteen days after the treatment
Protocol: as §2, with “Pro106Ala,” for “Pro106A1a,”, “The plants are cultivated in a greenhouse for 21 days, and then trifludimoxazin is applied to foliage of” for “On”, “plants” for “same day, the soil is treated with trifludimoxazin”, “at” for “at the”, “[…],” for “12.5,”

SMILES | Effect on glyphosate-resistant Amaranthus palmeri ([1]; application rate 1540 g/ha) | Effect on glyphosate-resistant Amaranthus palmeri ([1]; application rate 6160 g/ha) | Effect on glyphosate-sensitive Amaranthus palmeri ([2]; application rate 385 g/ha) | Effect on glyphosate-sensitive Amaranthus palmeri ([2]; application rate 1540 g/ha) | Effect on glyphosate-resistant Amaranthus palmeri ([1]; application rate 6.25 g/ha) | Effect on glyphosate-resistant Amaranthus palmeri ([1]; application rate 12.5 g/ha) | Effect on glyphosate-resistant Amaranthus palmeri ([1]; application rate 25 g/ha) | Effect on glyphosate-sensitive Amaranthus palmeri ([2]; application rate 6.25 g/ha) | Effect on glyphosate-sensitive Amaranthus palmeri ([2]; application rate 12.5 g/ha) | Effect on glyphosate-sensitive Amaranthus palmeri ([2]; application rate 25 g/ha) | effect against the weeds [3] | effect against the weeds [4]
O=C(O)CNCP(=O)(O)O [Glyphosate potassium salt, glyphosate potassium salt] | 20 | 70 | 100 | 100 | – | – | – | – | – | – | – | –
C#CCN1C(=O)C(F)(F)Oc2cc(F)c(-n3c(=O)n(C)c(=S)n(C)c3=O)cc21 [Trifludimoxazin, trifludimoxazin] | – | – | – | – | 100 | 100 | 100 | 65 | 70 | 80 | significant effect | significant effect
